# Assay results as given in PMC6859627, “Growth of the facultative chemolithoautotroph Ralstonia eutropha on organic waste materials: growth characteristics, redox regulation and hydrogenase activity” (Microbial Cell Factories, 2019).
# How the values were obtained:
# [1] = target: T1, SH (cytoplasmic, soluble hydrogenase) (Cupriavidus necator, UniProt P22317); assay: H2-dependent NAD+ reduction at […] nm, soluble extract; type: biochemical; details: 1 mM NAD+, H2-saturated 50 mM Tris/HCl pH 8.0, anaerobic, 30 °C
# T1 construct: gene hoxF; native enzyme in soluble protein fraction of cell extract; hetero-hexamer HoxHYFUI2; with NAD-reducing hydrogenase HoxS subunit beta; NAD-reducing hydrogenase HoxS subunit gamma; NAD-reducing hydrogenase HoxS subunit delta; NAD-reducing hydrogenase subunit HoxI
# [2] = target: T2, FOF1-ATPase (FOF1-ATP synthase) (Cupriavidus necator, UniProt Q0K5M2); assay: phosphate release from ATP by membrane vesicles; type: biochemical; details: 5 mM ATP, 1 mM MgSO4, 50 mM Tris-HCl pH 7.0, 30 °C; 10 min preincubation; FN-grown cells; overall ATPase activity of vesicles
# T2 construct: gene atpE; native complex in membrane vesicles (osmotic lysis), not purified; FOF1 share defined by DCCD sensitivity; with ATP synthase subunit a; ATP synthase subunit b; ATP synthase subunit alpha; ATP synthase subunit beta; ATP synthase gamma chain; ATP synthase subunit delta; ATP synthase epsilon chain
# T1 sequence (P22317 whole entry): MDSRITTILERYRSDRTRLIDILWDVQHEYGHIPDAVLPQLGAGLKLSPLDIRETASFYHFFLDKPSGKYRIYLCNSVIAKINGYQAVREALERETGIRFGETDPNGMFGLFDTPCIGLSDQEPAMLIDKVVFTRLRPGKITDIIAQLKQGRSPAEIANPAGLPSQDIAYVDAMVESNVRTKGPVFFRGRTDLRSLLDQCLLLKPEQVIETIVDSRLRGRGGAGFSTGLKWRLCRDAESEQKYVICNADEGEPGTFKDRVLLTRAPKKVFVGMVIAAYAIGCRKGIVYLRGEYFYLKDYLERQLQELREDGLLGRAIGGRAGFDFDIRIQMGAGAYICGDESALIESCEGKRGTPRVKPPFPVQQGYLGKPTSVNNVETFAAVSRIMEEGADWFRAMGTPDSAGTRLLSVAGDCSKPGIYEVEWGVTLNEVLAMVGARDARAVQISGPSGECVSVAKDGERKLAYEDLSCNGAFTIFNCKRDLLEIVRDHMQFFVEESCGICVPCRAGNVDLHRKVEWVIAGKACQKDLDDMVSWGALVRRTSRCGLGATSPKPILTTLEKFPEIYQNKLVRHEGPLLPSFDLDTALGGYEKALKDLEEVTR
# T1 sequence (P22318 2-234 partner): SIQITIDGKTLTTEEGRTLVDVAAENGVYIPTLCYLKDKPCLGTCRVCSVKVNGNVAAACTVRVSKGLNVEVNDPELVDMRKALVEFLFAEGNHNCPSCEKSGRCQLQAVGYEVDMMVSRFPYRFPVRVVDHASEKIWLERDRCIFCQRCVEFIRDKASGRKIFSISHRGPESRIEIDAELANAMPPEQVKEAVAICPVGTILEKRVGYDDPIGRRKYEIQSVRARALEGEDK
# T1 sequence (P22319 whole entry partner): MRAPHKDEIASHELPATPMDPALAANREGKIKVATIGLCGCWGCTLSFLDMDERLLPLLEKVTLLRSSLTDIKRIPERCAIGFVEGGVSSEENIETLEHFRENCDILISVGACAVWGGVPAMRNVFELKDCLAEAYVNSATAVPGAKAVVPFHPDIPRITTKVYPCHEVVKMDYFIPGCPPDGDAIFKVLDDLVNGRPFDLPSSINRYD
# T1 sequence (P22320 2-464 partner): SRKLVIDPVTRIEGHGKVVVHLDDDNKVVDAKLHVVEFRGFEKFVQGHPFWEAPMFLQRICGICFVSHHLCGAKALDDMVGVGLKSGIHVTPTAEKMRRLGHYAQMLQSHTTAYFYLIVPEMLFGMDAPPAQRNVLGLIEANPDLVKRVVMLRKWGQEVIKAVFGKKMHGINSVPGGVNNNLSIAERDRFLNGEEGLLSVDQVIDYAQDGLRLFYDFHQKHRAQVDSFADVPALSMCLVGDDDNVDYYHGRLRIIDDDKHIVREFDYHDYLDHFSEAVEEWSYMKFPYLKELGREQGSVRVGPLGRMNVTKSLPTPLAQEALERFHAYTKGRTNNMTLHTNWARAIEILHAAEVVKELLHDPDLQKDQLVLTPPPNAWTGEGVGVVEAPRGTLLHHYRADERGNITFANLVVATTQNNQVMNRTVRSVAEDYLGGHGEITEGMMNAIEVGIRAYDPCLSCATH
SMILES,"H2-dependent NAD+ reduction at 365 nm, soluble extract [1]",fold inhibition at 0.2 mM [2]
NC(=O)c1ccc[n+]([C@@H]2O[C@H](COP(=O)(O)OP(=O)(O)OC[C@H]3O[C@@H](n4cnc5c(N)ncnc54)[C@H](O)[C@@H]3O)[C@@H](O)[C@H]2O)c1 [NAD^+],hydrogen-oxidizing activity of SH was measured in anaerobic cuvettes with NAD^+,–
"C(=NC1CCCCC1)=NC1CCCCC1 [DCCD, N,N′-dicyclohexylcarbodiimide]",–,~ 2.3 fold
